# Key:
# Format in all cases: in vivo, Broiler chickens
# [1] = system: mixed E. acervulina, E. maxima, and E. tenella coccidial inoculum; experiment: Anticoccidial efficacy versus salinomycin (Example 5): performance, average lesion score, total OPG; details: 60 g/t
# From the text: (§1) • 1. No Additive, no Cocci. • 2. No Additive, Cocci. • 3. Salinomycin 60 g/t, Cocci. • 4. Product Z 0.551%, Cocci.
# (§2) Cages were blocked by location in the battery with block size equal to the groups (8 cages per block). The study began when the birds were placed (day of hatch, i.e., DOT 0) at which time they were allocated to the experimental cages. Only healthy birds were selected (10 birds/cage).
# Upon arrival, chicks were raised in Petersime battery cages. At placement the birds were fed the various feeds. The Petersime batteries were in an insulated building having a concrete floor and a metal overhead structure. The floor space per animal was 0.51 sq. ft. per bird. The feeder space per bird was 10 birds per 24×3.5-inch feeder. Uniform temperature and illumination was provided.
# (§3) An unmedicated commercial chicken feed composition compounded with feedstuffs commonly used in the U.S. poultry industry, such as cereals and proteins, was obtained. The diet was an all-vegetable feed with no antibiotics, organic acids, NSP enzymes, or direct fed microbial. This feed in mash form was fed ad libitum from the date of chick arrival until Day 28 of the study. Experimental feeds augmented with the algal biomass were prepared from this commercial poultry feed. The feeds were mixed to assure a uniform distribution of algal biomass into the mash feed.
# Day of hatch male broiler chicks of strain Cobb X Cobb were obtained from Cobb-Vantress, Cleveland, GA. Sets of ten chicks were randomly selected, group weighed and placed into cages. No birds were replaced during the study.
# (§4) All birds were weighed by cage on DOT 0, 14, 20 and 28. Feed was weighed in on DOT 0 and remaining feed was weighed on DOT 14, 20, and 28.
# Coccidial oocysts inoculation procedures were described. On Day 14 of the study all birds except Tl orally received a mixed E. acervulina, E. maxima, and E. tenella coccidial inoculum diluted to a 1 ml volume (p.o.). Inoculum level attempted to produce a moderate challenge.
# (§5) On DOT 20, five birds from each cage were selected, sacrificed, weighed, and examined for the degree of presence of coccidia lesions. If less than five birds were present at time of scoring, all remaining birds within the cage were scored. The Johnson and Reid, 1970 method of coccidiosis lesion scoring was used to score the infected region(s) of the intestine. The scoring was based on a 0 to 4 score, with 0 being normal and 4 being the most severe.
# (§6) Day 19 (Day 5 post challenge) drop pans from all cages were cleaned. Day 20 (Day 6 pc) mixed feces were collected from each cage. Each sample was examined for the number of oocysts per gram fecal material by fecal floatation.
# (§7) Means for cage weight gain, feed consumption, feed conversion rate, lesion scores, opgs, and mortality were calculated.
# [2] = system: Eimeria acervulina; experiment: Anticoccidial efficacy (Example 5): lesion score and OPG, Eimeria acervulina; details: 60 g/t, infected
# From the text: as §1, §2
# (§8) An unmedicated commercial chicken feed composition compounded with feedstuffs commonly used in the U.S. poultry industry, such as cereals and proteins, was obtained. The diet was an all-vegetable feed with no antibiotics, organic acids, NSP enzymes, or direct fed microbial. This feed in mash form was fed ad libitum from the date of chick arrival until Day 28 of the study. Experimental feeds augmented with the algal biomass were prepared from this commercial poultry feed. The feeds were mixed to assure a uniform distribution of algal biomass into the mash feed. […]
# (§9) On DOT 20, five birds from each cage were selected, sacrificed, weighed, and examined for the degree of presence of coccidia lesions. If less than five birds were present at time of scoring, all remaining birds within the cage were scored. […]
# as §7
# [3] = system: Eimeria maxima; experiment: Anticoccidial efficacy (Example 5): lesion score and OPG, Eimeria maxima; details: 60 g/t, infected
# From the text: as §1, §2, §8, §9, §7
# [4] = system: Eimeria tenella; experiment: Anticoccidial efficacy (Example 5): lesion score and OPG, Eimeria tenella; details: 60 g/t, infected
# From the text: as §1, §2, §8, §9, §7
# [5] = system: mixed E. acervulina, E. maxima, and E. tenella coccidial inoculum; experiment: Cocci Test (Example 6): performance, average lesion score, total OPG; details: 1.0 lb/t
# From the text: (§10) • 1. No Additive, no Cocci • 2. No Additive, Cocci • 3. Salinomycin 60 g/t, Cocci • 4.
# (§11) Each group was replicated 10 times. Cages were blocked by location in the battery with block size equal to groups (7 cages per block). The study began when the birds were placed (day of hatch, i.e., DOT 0) at which time they were allocated to the experimental cages. Only healthy birds were selected (10 birds/cage).
# Upon arrival, chicks were raised in Petersime battery cages. At placement the birds were fed the various feeds. The Petersime batteries were in an insulated building having a concrete floor and a metal overhead structure. The floor space per animal was 0.51 sq. ft per bird. The feeder space per bird was 10 birds per 24×3.5-inch feeder. Uniform temperature and illumination was provided.
# as §3
# Day of hatch male broiler chicks of strain Cobb 500 were obtained from Cobb-Vantress, Cleveland, GA. Sets of ten chicks were randomly selected, group weighed and placed into cages. Number and disposition of all birds not used for allocation were documented. No birds were replaced during the study.
# as §4
# On Day 14 of the study all birds except Tl orally received a mixed E. acervulina, E. maxima, and E. tenella coccidial inoculum diluted to a 1 ml volume (p.o.). Inoculum level attempted to produce a moderate challenge.
# as §5, §6, §7
# [6] = system: Eimeria acervulina; experiment: Cocci Test (Example 6): lesion score and OPG, Eimeria acervulina; details: 1.0 lb/t, infected
# From the text: as §10, §11, §8, §9, §7
# [7] = system: Eimeria maxima; experiment: Cocci Test (Example 6): lesion score and OPG, Eimeria maxima; details: 1.0 lb/t, infected
# From the text: as §10, §11, §8, §9, §7
# [8] = system: Eimeria tenella; experiment: Cocci Test (Example 6): lesion score and OPG, Eimeria tenella; details: 1.0 lb/t, infected
# From the text: as §10, §11, §8, §9, §7
compound,measurement,setting,value
CC[C@@H](C(=O)[C@@H](C)[C@@H](O)[C@H](C)[C@@H]1O[C@@H]([C@@H](CC)C(=O)O)CC[C@@H]1C)[C@H]1O[C@]2(C=C[C@@H](O)[C@]3(CC[C@@](C)([C@H]4CC[C@](O)(CC)[C@H](C)O4)O3)O2)[C@H](C)C[C@@H]1C [Salinomycin],FCR Day 0-20,[1]; infected,1.597bc
same,FCR Day 0-28,[1]; infected,1.625bc
same,FCR Day 14-20,[1]; infected,1.744b
same,FCR Day 14-28,[1]; infected,1.766c
same,Feed Intake Day 0-20,[1]; infected,5.433a
same,Feed Intake Day 0-28,[1]; infected,5.918a
same,Feed Intake Day 14-20,[1]; infected,3.049a
same,Feed Intake Day 14-28,[1]; infected,3.534a
same,Wt. Gain Day 0-20,[1]; infected,0.360b
same,Wt. Gain Day 0-28,[1]; infected,0.376b
same,Wt. Gain Day 14-20,[1]; infected,0.185b
same,Wt. Gain Day 14-28,[1]; infected,0.202b
same,FCR Day 14,[1]; infected on Day 14,1.156a
same,Feed Intake Day 14,[1]; infected on Day 14,2.384a
same,Wt. Gain Day 14,[1]; infected on Day 14,0.218a
same,Lesion Scores Avg.,"[1]; infected, DOT 20, 0 to 4 score",1.3c
same,OPG Total Avg.,"[1]; infected, Day 20 feces",9722b OPG
same,Lesion Scores Eimeria acervulina,"[2]; DOT 20, 0 to 4 score",2.1c
same,OPG Eimeria acervulina,[2]; Day 20 feces,4511c OPG
same,Lesion Scores Eimeria maxima,"[3]; DOT 20, 0 to 4 score",0.9c
same,OPG Eimeria maxima,[3]; Day 20 feces,484b OPG
same,Lesion Scores Eimeria tenella,"[4]; DOT 20, 0 to 4 score",0.7c
same,OPG Eimeria tenella,[4]; Day 20 feces,4727c OPG
same,FCR Day 0-20,[5]; infected,1.876ab
same,FCR Day 0-28,[5]; infected,1.832a
same,FCR Day 14-20,[5]; infected,1.839b
same,FCR Day 14-28,[5]; infected,1.789a
same,Feed Intake Day 0-20,[5]; infected,7.064b
same,Feed Intake Day 0-28,[5]; infected,9.852bc
same,Feed Intake Day 14-20,[5]; infected,3.628b
same,Feed Intake Day 14-28,[5]; infected,6.416b
same,Wt. Gain Day 0-20,[5]; infected,0.382b
same,Wt. Gain Day 0-28,[5]; infected,0.718bc
same,Wt. Gain Day 14-20,[5]; infected,0.201b
same,Wt. Gain Day 14-28,[5]; infected,0.537b
same,FCR Day 14,[5]; infected on Day 14,1.491a
same,Feed Intake Day 14,[5]; infected on Day 14,3.436ab
same,Wt. Gain Day 14,[5]; infected on Day 14,0.232b
same,Lesion Scores Avg.,"[5]; infected, DOT 20, 0 to 4 score",1.5c
same,OPG Total Avg.,"[5]; infected, Day 20 feces",35.178c OPG
same,Lesion Scores Eimeria acervulina,"[6]; DOT 20, 0 to 4 score",1.7c
same,OPG Eimeria acervulina,[6]; Day 20 feces,30802c OPG
same,Lesion Scores Eimeria maxima,"[7]; DOT 20, 0 to 4 score",1.7b
same,OPG Eimeria maxima,[7]; Day 20 feces,2608a OPG
same,Lesion Scores Eimeria tenella,"[8]; DOT 20, 0 to 4 score",1.1b
same,OPG Eimeria tenella,[8]; Day 20 feces,1768b OPG
